Measurements: the NIST ThermoML archive (doi:10.1021/je900615b)
Several values for one entry are separate records, joined by “and”; a condition that tells them apart may be missing. Identical values can stand only once.

Details: Liquid, Hot wire method

CC(C)OC(C)C [diisopropyl ether]
Details | thermal conductivity
235.46 K, 100 kPa | 0.1259 W/m/K
235.54 K, 100 kPa | 0.1258 W/m/K
236.06 K, 100 kPa | 0.1259 W/m/K
236.15 K, 30600 kPa | 0.1369 W/m/K
236.25 K, 5000 kPa | 0.128 W/m/K
236.29 K, 10100 kPa | 0.13 W/m/K
236.33 K, 5000 kPa | 0.1275 W/m/K
236.44 K, 20200 kPa | 0.1331 W/m/K
236.45 K, 20300 kPa | 0.1337 W/m/K
236.53 K, 29900 kPa | 0.1364 W/m/K
236.67 K, 5000 kPa | 0.1277 W/m/K
236.7 K, 10200 kPa | 0.1305 W/m/K
236.8 K, 20300 kPa | 0.1337 W/m/K
236.92 K, 30000 kPa | 0.1363 W/m/K
237.15 K, 10200 kPa | 0.1302 W/m/K
254.4 K, 20400 kPa | 0.1276 W/m/K
254.47 K, 30400 kPa | 0.1314 W/m/K
254.66 K, 5100 kPa | 0.122 W/m/K
254.73 K, 100 kPa | 0.1201 W/m/K
254.74 K, 10000 kPa | 0.1238 W/m/K
254.76 K, 29500 kPa | 0.1312 W/m/K
254.86 K, 10200 kPa | 0.1241 W/m/K
254.89 K, 5300 kPa | 0.1223 W/m/K
254.9 K, 20100 kPa | 0.128 W/m/K
255.08 K, 100 kPa | 0.1205 W/m/K
255.13 K, 10100 kPa | 0.1236 W/m/K
255.14 K, 5100 kPa | 0.1221 W/m/K
255.26 K, 100 kPa | 0.1199 W/m/K
255.58 K, 30100 kPa | 0.1315 W/m/K
255.61 K, 19900 kPa | 0.1285 W/m/K
274.6 K, 30000 kPa | 0.1274 W/m/K
274.72 K, 10100 kPa | 0.1177 W/m/K
274.86 K, 29900 kPa | 0.1269 W/m/K
274.89 K, 20000 kPa | 0.122 W/m/K
274.95 K, 5100 kPa | 0.1154 W/m/K
275 K, 100 kPa | 0.1129 W/m/K
275.02 K, 10000 kPa | 0.1178 W/m/K
275.17 K, 30100 kPa | 0.1271 W/m/K
275.19 K, 5000 kPa | 0.115 W/m/K
275.25 K, 10000 kPa | 0.1175 W/m/K
275.3 K, 100 kPa | 0.1135 W/m/K
275.51 K, 20100 kPa | 0.1218 W/m/K
275.6 K, 5000 kPa | 0.1152 W/m/K
275.91 K, 100 kPa | 0.1131 W/m/K
276.04 K, 20100 kPa | 0.1219 W/m/K
294.58 K, 100 kPa | 0.1073 W/m/K
294.64 K, 30100 kPa | 0.1197 W/m/K
294.65 K, 10000 kPa | 0.1118 W/m/K
294.95 K, 5000 kPa | 0.1089 W/m/K
294.98 K, 10000 kPa | 0.1115 W/m/K
295.03 K, 100 kPa | 0.1071 W/m/K
295.13 K, 20100 kPa | 0.1161 W/m/K
295.14 K, 30100 kPa | 0.1199 W/m/K
295.27 K, 30000 kPa | 0.1198 W/m/K
295.32 K, 10100 kPa | 0.1111 W/m/K
295.35 K, 5000 kPa | 0.1085 W/m/K
295.6 K, 20100 kPa | 0.116 W/m/K
295.7 K, 100 kPa | 0.1066 W/m/K
295.82 K, 5000 kPa | 0.1087 W/m/K
296.18 K, 20100 kPa | 0.1159 W/m/K
314.96 K, 30000 kPa | 0.1145 W/m/K
315.03 K, 5000 kPa | 0.1027 W/m/K
315.07 K, 20000 kPa | 0.1105 W/m/K
315.13 K, 100 kPa | 0.0993 W/m/K
315.24 K, 30000 kPa | 0.1144 W/m/K
315.26 K, 20000 kPa | 0.1099 W/m/K
315.35 K, 10000 kPa | 0.105 W/m/K
315.39 K, 5000 kPa | 0.1023 W/m/K
315.48 K, 100 kPa | 0.0996 W/m/K
315.71 K, 10000 kPa | 0.1054 W/m/K
315.73 K, 5100 kPa | 0.1027 W/m/K
315.76 K, 20000 kPa | 0.1104 W/m/K
315.88 K, 100 kPa | 0.0994 W/m/K
315.98 K, 30000 kPa | 0.1144 W/m/K
316.26 K, 10000 kPa | 0.105 W/m/K
334.99 K, 10100 kPa | 0.0998 W/m/K
335.01 K, 5400 kPa | 0.0959 W/m/K
335.11 K, 20000 kPa | 0.1038 W/m/K
335.23 K, 100 kPa | 0.0935 W/m/K
335.29 K, 29900 kPa | 0.1093 W/m/K
335.32 K, 10100 kPa | 0.0995 W/m/K
335.46 K, 100 kPa | 0.0932 W/m/K
335.51 K, 30200 kPa | 0.1094 W/m/K
335.68 K, 19700 kPa | 0.1043 W/m/K
335.72 K, 30000 kPa | 0.1096 W/m/K
335.84 K, 5000 kPa | 0.096 W/m/K
335.84 K, 10100 kPa | 0.0995 W/m/K
335.94 K, 100 kPa | 0.0931 W/m/K
336.31 K, 20100 kPa | 0.1042 W/m/K
336.37 K, 5200 kPa | 0.0959 W/m/K
354.72 K, 29900 kPa | 0.106 W/m/K and 0.1051 W/m/K
354.85 K, 19700 kPa | 0.1006 W/m/K
354.97 K, 5000 kPa | 0.0913 W/m/K
354.97 K, 19800 kPa | 0.1 W/m/K
355.23 K, 10100 kPa | 0.0944 W/m/K
355.29 K, 300 kPa | 0.0865 W/m/K
355.33 K, 10100 kPa | 0.0944 W/m/K
355.45 K, 5000 kPa | 0.0916 W/m/K
355.47 K, 20100 kPa | 0.1001 W/m/K
355.56 K, 5000 kPa | 0.091 W/m/K
355.66 K, 300 kPa | 0.0869 W/m/K
355.87 K, 10000 kPa | 0.094 W/m/K
356.04 K, 300 kPa | 0.0866 W/m/K
356.04 K, 29900 kPa | 0.1056 W/m/K
374.75 K, 30000 kPa | 0.1021 W/m/K
374.95 K, 29800 kPa | 0.1021 W/m/K
375.12 K, 20000 kPa | 0.0959 W/m/K
375.24 K, 400 kPa | 0.0813 W/m/K
375.25 K, 10000 kPa | 0.0893 W/m/K
375.4 K, 5100 kPa | 0.0858 W/m/K
375.47 K, 400 kPa | 0.0812 W/m/K
375.55 K, 30300 kPa | 0.1026 W/m/K
375.57 K, 20000 kPa | 0.0957 W/m/K
375.61 K, 10000 kPa | 0.0889 W/m/K
375.75 K, 5100 kPa | 0.0853 W/m/K
375.87 K, 400 kPa | 0.0816 W/m/K
376.05 K, 20000 kPa | 0.0955 W/m/K
376.23 K, 10000 kPa | 0.089 W/m/K
376.26 K, 5100 kPa | 0.0854 W/m/K
